Source: ChEMBL document CHEMBL1201862, “PubChem BioAssay data set” (2004)
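A five-concentration, 48-hour dose response in 96-well plates underlies each endpoint, interpolated linearly between surrounding concentrations. GI50 = concentration required for 50% inhibition of growth.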 Calls of active or inactive are those of the source. Rule as the data show it: active = GI50 up to about 1.1 µM and inactive = higher.

Experiments:
Assay in all cases: NCI tumour cell line growth inhibition, 48 h
A549 = test system: A549
CCRF-CEM = test system: CCRF-CEM
COLO 205 = test system: COLO 205
EKVX = test system: EKVX
HCT-15 = test system: HCT-15
IGROV-1 = test system: IGROV-1
KM12 = test system: KM12
LOX IMVI = test system: LOX IMVI
M14 = test system: M14
Malme-3M = test system: Malme-3M
NCI-H23 = test system: NCI-H23
OVCAR-3 = test system: OVCAR-3
OVCAR-5 = test system: OVCAR-5
OVCAR-8 = test system: OVCAR-8
SK-OV-3 = test system: SK-OV-3
SNB-19 = test system: SNB-19
SW-620 = test system: SW-620
TK-10 = test system: TK-10
U-251 = test system: U-251
UACC-62 = test system: UACC-62

Structure (SMILES)	GI50 (A549)	GI50 (CCRF-CEM)	GI50 (COLO 205)	GI50 (EKVX)	GI50 (HCT-15) [µM]	GI50 (IGROV-1)	GI50 (KM12)	GI50 (LOX IMVI)	GI50 (M14)	GI50 (Malme-3M)	GI50 (NCI-H23)	GI50 (OVCAR-3)	GI50 (OVCAR-5)	GI50 (OVCAR-8)	GI50 (SK-OV-3)	GI50 (SNB-19)	GI50 (SW-620)	GI50 (TK-10)	GI50 (U-251)	GI50 (UACC-62)
O=S(=O)(O)c1ccc2cc(/N=N\c3cc(S(=O)(=O)O)c4cccnc4c3O)ccc2c1	> 100 µM (inactive)	29.7 µM (inactive)	> 100 µM (inactive)	> 100 µM (inactive)	> 100	> 100 µM (inactive)	> 100 µM (inactive)	> 100 µM (inactive)	> 100 µM (inactive)	> 100 µM (inactive)	> 100 µM (inactive)	> 100 µM (inactive)	> 100 µM (inactive)	> 100 µM (inactive)	> 100 µM (inactive)	> 100 µM (inactive)	> 100 µM (inactive)	> 100 µM (inactive)	> 100 µM (inactive)	> 100 µM (inactive)
CN(C)c1cccc(/C=C(\C#N)c2ccccc2)c1	2.61 µM (inactive)	0.794 µM (active)	0.533 µM (active)	2.14 µM (inactive)	0.219	1.11 µM (active)	0.1 µM (active)	0.406 µM (active)	0.277 µM (active)	1.95 µM (inactive)	1.44 µM (inactive)	0.157 µM (active)	3.72 µM (inactive)	1.01 µM (active)	1.11 µM (active)	1.72 µM (inactive)	0.316 µM (active)	0.944 µM (active)	0.687 µM (active)	0.792 µM (active)
CCC1(O)CC(O)c2c(O)c3c(c(O)c2C1C(=O)OC)C(=O)c1cccc(O)c1C3=O (stereo not given)	3.64 µM (inactive)	1.53 µM (inactive)	2.21 µM (inactive)	2.18 µM (inactive)	1.54	1.39 µM (inactive)	1.1 µM (active)	2.37 µM (inactive)	2.87 µM (inactive)	1.94 µM (inactive)	3.29 µM (inactive)	2.05 µM (inactive)	4.86 µM (inactive)	1.63 µM (inactive)	4.49 µM (inactive)	2.45 µM (inactive)	4.67 µM (inactive)	7.67 µM (inactive)	3.74 µM (inactive)	3 µM (inactive)
